Earlier results, collected in publication PMC3066546, “Development of modified nucleosides that have supremely high anti-HIV activity and low toxicity and prevent the emergence of resistant HIV mutants” (Proceedings of the Japan Academy. Series B, Physical and …, 2011).
Like-named read-outs stand apart in the source and are kept apart here.

What was measured:
HIV-1MDR = tested on: HIV-1MDR; design: method as in PMID 18487070; conditions: Table 7; read-out: Anti-HIV activity (MAGI assay, µg) HIV-1MDR
HIV-1 M184V = tested on: HIV-1 M184V; design: method as in PMID 563233, PMID 17548498, PMID 18487070; conditions: Table 6
[1] = tested on: 41/69/ 125/SG drug-resistant HIV; design: method as in PMID 11087576, PMID 11577734, PMID 15200030; conditions: MAGI assay
HXB2 (wild type HIV) = tested on: HXB2 (wild type HIV); design: method as in PMID 11087576, PMID 11577734, PMID 15200030; conditions: MAGI assay
HIV-1LAI = conditions: MTT assay, MT-4 cells
[2] = tested on: 41/215 drug-resistant HIV; design: method as in PMID 11087576, PMID 11577734, PMID 15200030; conditions: MAGI assay
L74V drug-resistant HIV = tested on: L74V drug-resistant HIV; design: method as in PMID 11087576, PMID 11577734, PMID 15200030; conditions: MAGI assay
HIV-1wild = tested on: HIV-1wild; design: method as in PMID 18487070; conditions: Table 7; read-out: Anti-HIV activity (MAGI assay, µg) HIV-1wild
M184V drug-resistant HIV = tested on: M184V drug-resistant HIV; design: method as in PMID 11087576, PMID 11577734, PMID 15200030; conditions: MAGI assay
M184I drug-resistant HIV = tested on: M184I drug-resistant HIV; design: method as in PMID 11087576, PMID 11577734, PMID 15200030; conditions: MAGI assay
HIV-1M184V = tested on: HIV-1M184V; design: method as in PMID 18487070; conditions: Table 7; read-out: Anti-HIV activity (MAGI assay, µg) HIV-1M184V
HIV-1 Wild-type = tested on: HIV-1 Wild-type; design: method as in PMID 563233, PMID 17548498, PMID 18487070; conditions: Table 6
[3] = molecular target: Y181C (non-nucleoside reverse transcriptase inhibitor-resistant); design: method as in PMID 11087576, PMID 11577734, PMID 15200030; conditions: MAGI assay
HIV = tested on: HIV; design: method as in PMID 7764216; conditions: Table 1; for EC50: anti-HIV
[4] = tested on: MDR (multidrug-resistant HIV); conditions: MAGI assay
KH65R drug-resistant HIV = tested on: KH65R drug-resistant HIV; design: method as in PMID 11087576, PMID 11577734, PMID 15200030; conditions: MAGI assay
[5] = molecular target: human mitochondrion DNA polymerase (DNA polymerase γ); design: method as in PMID 17548498, PMID 18487070; conditions: read-out: EC50 to inhibit the incorporation of dATP
ICR mice = conditions: for Mortality (%): six-week-old ICR male mice
[6] = tested on: HIVs isolated from seven heavily drug-experienced patients; design: method as in PMID 11302824, PMID 12455229, PMID 15457679; conditions: seven heavily drug-experienced AIDS patients, as efficiently as against wild-type HIV
[7] = Table 6
adenosine deaminase [8] = conditions: 4′EdA to 4′EdI, 4′Ed2AA to 4′EdG
[9] = tested on: calf thymus DNA polymerase α; design: method as in earlier work; conditions: calf thymus enzyme
[10] = tested on: recombinant rat DNA polymerase β; design: method as in earlier work; conditions: recombinant rat enzyme
[11] = cytotoxic concentration, Table 1
[12] = design: method as in PMID 563233, PMID 17548498, PMID 18487070; conditions: acidic conditions of gastric juices (pH 1.06), 24 ℃
RT of the M184V mutant = tested on: RT of the M184V mutant; design: method as in PMID 15456247; conditions: 4′EddCTP compared with RT of wild-type HIV
[13] = CEM cells, MT4 cells, MAGI-CCR5 cells
adenosine deaminase [14] = tested on: adenosine deaminase; design: method as in PMID 563233, PMID 17548498, PMID 18487070
[15] = intraveneous administration, 1 mg/Kg
[16] = intraveneous administration, 3 mg/Kg
[17] = intraveneous administration, 10 mg/Kg
[18] = intraveneous administration, 100 mg/Kg

Cc1cn([C@H]2C[C@H](N=[N+]=[N-])[C@@H](CO)O2)c(=O)[nH]c1=O [AZT, 3′-azido-3′-deoxythymidine, reference compound]
EC50 (HIV-1MDR): 74.3 µM
EC50 (HIV-1 M184V): 16 nM
CC50 (MT-4 cells): 29.4 µM
EC50 [1]: 1600 nM
EC50 (HXB2 (wild type HIV)): 22 nM
EC50 (HIV-1LAI; Table 2): 3.2 nM
EC50 (HIV-1LAI; Table 3): 3.2 nM
EC50 [2]: 300 nM
CC50 (Hela cells): > 100 µM
EC50 (L74V drug-resistant HIV): 20 nM
EC50 (HIV-1wild): 170 nM
EC50 (M184V drug-resistant HIV): 10 nM
EC50 (M184I drug-resistant HIV): 17 nM
EC50 (HIV-1M184V): 130 nM
EC50 (HIV-1 Wild-type): 3.2 nM
EC50 [3]: 14 nM
EC50 (HIV): 0.001 µM
EC50 [4]: 15300 nM
EC50 (KH65R drug-resistant HIV): 20 nM

Nc1ncnc2c1ncn2[C@H]1CC[C@@H](CO[P@@](=O)(O)O[P@](=O)(O)OP(=O)(O)O)O1 [ddATP, 2′,3′-dideoxyadenosine-5-O-triphosphate, reference compound]
EC50 [5]: 200 nM

C#C[C@]1(CO)O[C@@H](n2cnc3c(N)nc(N)nc32)C[C@@H]1O [4′Ed2AA, 2′-deoxy-4′-C-ethynyl-2-aminoadenosine]
Mortality (%) (ICR mice; [15]): 0%
Mortality (%) (ICR mice; [16]): 0%
Mortality (%) (ICR mice; [17]): 100%
Mortality (%) (ICR mice; [18]): 100%
survival days of mice after administration (ICR mice; intraveneous, 10 mg/Kg): 2 days
survival days of mice after administration (ICR mice; intraveneous, 100 mg/Kg): 1 days
Mortality (%) (ICR mice; oral administration, 1 mg/Kg): 0%
Mortality (%) (ICR mice; oral administration, 3 mg/Kg): 100%
Mortality (%) (ICR mice; oral administration, 10 mg/Kg): 100%
Mortality (%) (ICR mice; oral administration, 100 mg/Kg): 100%
survival days of mice after administration (ICR mice; oral, 3 mg/Kg): 2 days
survival days of mice after administration (ICR mice; oral, 10 mg/Kg): 2 days
survival days of mice after administration (ICR mice; oral, 100 mg/Kg): 1 days
potency against HIVs isolated from patients [6]: highly potent
CC50 (MT-4 cells; Table 3): 0.82 µM
EC50 [1]: 4.1 nM
EC50 (HXB2 (wild type HIV)): 1.4 nM
EC50 (HIV-1LAI; Table 3): 0.3 nM
EC50 [2]: 1.7 nM
CC50 (Hela cells; Table 4, Hela cells): > 200 µM
CC50 [7]: 900 nM
EC50 (L74V drug-resistant HIV): 0.7 nM
EC50 (M184V drug-resistant HIV): 5.9 nM
EC50 (M184I drug-resistant HIV): 2.7 nM
EC50 (HIV-1 Wild-type): 0.34 nM
EC50 [3]: 0.8 nM
EC50 [4]: 1 nM
EC50 (KH65R drug-resistant HIV): 0.35 nM
conversion by adenosine deaminase in mice (adenosine deaminase [8]): easily converted

CC1(COP(=O)(O)OP(=O)(O)OP(=O)(O)O)OC(n2ccc(N)nc2=O)C(O)C1O (centres unmarked) [4′MAraCTP]
chain termination of DNA polymerase α [9]: chain terminator
chain termination of DNA polymerase β [10]: chain terminator

C#C[C@]1(CO)O[C@@H](n2ccc(N)nc2=O)C[C@@H]1O [4′EdC, 4′-C-ethynyl-2′-deoxycytidine]
EC50 [1]: 15 nM
EC50 (HXB2 (wild type HIV)): 1.2 nM
EC50 (HIV-1LAI; Table 2, listed as 4′-C-ethynyl-2′-deoxycytidine): 4.8 nM
EC50 [2]: 6 nM
EC50 (L74V drug-resistant HIV): 1.3 nM
EC50 (M184V drug-resistant HIV): 2.4 nM
EC50 (M184I drug-resistant HIV): 2.6 nM
EC50 [3]: 2.1 nM
EC50 (KH65R drug-resistant HIV): 0.8 nM

Nc1ncnc2c1ncn2[C@H]1CC[C@@H](CO)O1 [ddA, 2′,3′-dideoxyadenosine, reference compound]
CC50 [11]: > 500 µM
time to complete decomposition [12]: 5 min
SI (CC50/EC50) (HIV): >11
EC50 (HIV): 47 µM

C#CC1(COP(=O)(O)OP(=O)(O)OP(=O)(O)O)CCC(n2ccc(N)nc2=O)O1 (single isomer, unassigned) [L-isomer of 4′EddCTP]
activity against RT of the M184V mutant (RT of the M184V mutant): not active

CC1(COP(=O)(O)OP(=O)(O)OP(=O)(O)O)OC(n2ccc(N)nc2=O)CC1O (centres unmarked) [4′MdCTP]
chain termination of DNA polymerase α [9]: chain terminator
chain termination of DNA polymerase β [10]: chain terminator

Nc1ccn([C@@H]2CS[C@H](CO)O2)c(=O)n1 [Compound 3TC, 2′,3′-dideoxy-3′-thia-L-cytidine, reference compound]
EC50 (HIV-1MDR): 2.8 µM
CC50 (MT-4 cells): > 100 µM
EC50 [1]: 9900 nM
EC50 (HXB2 (wild type HIV)): 710 nM
EC50 (HIV-1LAI; Table 2): 100 nM
CC50 (Hela cells): > 100 µM
EC50 (HIV-1wild): 1000 nM
EC50 (M184V drug-resistant HIV): > 100000 nM
EC50 (M184I drug-resistant HIV): > 100000 nM
EC50 (HIV-1M184V): > 100000 nM
EC50 [4]: 1100 nM

3′-azido-3′-deoxythymidine-5′-O-phosphate [AZTTP, reference compound]
intracellular half-life (T1/2) [13]: 3 h

C#C[C@]1(CO)O[C@@H](n2ccc(N)nc2=O)[C@@H](O)[C@@H]1O [4′EaraC, 4′-C-ethynyl D-arabino-furanosyl cytosine]
CC50 (MT-4 cells; Table 2): 2 µM
EC50 [1]: 170 nM
EC50 (HXB2 (wild type HIV)): 7.1 nM
EC50 (HIV-1LAI; Table 2): 43 nM
EC50 [2]: 26 nM
CC50 (Hela cells; Table 4, Hela cells): > 200 µM
EC50 (L74V drug-resistant HIV): 26 nM
EC50 (M184V drug-resistant HIV): 710 nM
EC50 (M184I drug-resistant HIV): 480 nM
EC50 [3]: 16 nM
EC50 [4]: 7.9 nM
EC50 (KH65R drug-resistant HIV): 15 nM

C#C[C@]1(CO)O[C@@H](n2cnc3c(N)ncnc32)C[C@@H]1O [4′EdA, 2′-deoxy-4′-C-ethynyladenosine]
Mortality (%) (ICR mice; [15]): 0%
Mortality (%) (ICR mice; [16]): 0%
Mortality (%) (ICR mice; [17]): 0%
Mortality (%) (ICR mice; [18]): 0%
Mortality (%) (ICR mice; oral administration, 1 mg/Kg): 0%
Mortality (%) (ICR mice; oral administration, 3 mg/Kg): 0%
Mortality (%) (ICR mice; oral administration, 10 mg/Kg): 0%
Mortality (%) (ICR mice; oral administration, 100 mg/Kg): 0%
survival of mice (ICR mice; single dosage of 3–100 mg kg−1, both intravenous and oral): All eight mice survived
potency against HIVs isolated from patients [6]: highly potent
CC50 (MT-4 cells; Table 2): 16 µM
CC50 (MT-4 cells; Table 3): 16 µM
EC50 [1]: 65 nM
EC50 (HXB2 (wild type HIV)): 8 nM
EC50 (HIV-1LAI; Table 2): 9.8 nM
EC50 [2]: 12 nM
CC50 (Hela cells; Table 4, Hela cells): > 200 µM
EC50 (L74V drug-resistant HIV): 4 nM
EC50 (M184V drug-resistant HIV): 47 nM
time to complete deamination by adenosine deaminase (adenosine deaminase [14]): 60 min
EC50 (M184I drug-resistant HIV): 22 nM
EC50 [3]: 11 nM
EC50 [4]: 6.2 nM
EC50 (KH65R drug-resistant HIV): 3.3 nM
conversion by adenosine deaminase in mice (adenosine deaminase [8]): easily converted to 4′EdI

C#C[C@]1(CO)O[C@@H](n2cnc3c(=O)[nH]c(N)nc32)C[C@@H]1O [4′EdG, 2′-deoxy-4′-C-ethynylguanosine]
Mortality (%) (ICR mice; [15]): 0%
Mortality (%) (ICR mice; [16]): 100%
Mortality (%) (ICR mice; [17]): 100%
Mortality (%) (ICR mice; [18]): 100%
survival days of mice after administration (ICR mice; intraveneous, 3 mg/Kg): 4 days
survival days of mice after administration (ICR mice; intraveneous, 10 mg/Kg): 2 days
survival days of mice after administration (ICR mice; intraveneous, 100 mg/Kg): 1 days
Mortality (%) (ICR mice; oral administration, 1 mg/Kg): 0%
Mortality (%) (ICR mice; oral administration, 3 mg/Kg): 100%
Mortality (%) (ICR mice; oral administration, 10 mg/Kg): 100%
Mortality (%) (ICR mice; oral administration, 100 mg/Kg): 100%
survival days of mice after administration (ICR mice; oral, 3 mg/Kg): 4 days
survival days of mice after administration (ICR mice; oral, 10 mg/Kg): 4 days
survival days of mice after administration (ICR mice; oral, 100 mg/Kg): 1 days
potency against HIVs isolated from patients [6]: highly potent
CC50 (MT-4 cells; Table 3): 1.5 µM
EC50 [1]: 6.8 nM
EC50 (HXB2 (wild type HIV)): 7 nM
EC50 (HIV-1LAI; Table 3): 1.4 nM
EC50 [2]: 19 nM
CC50 (Hela cells; Table 4, Hela cells): 52 µM
EC50 (L74V drug-resistant HIV): 1.2 nM
EC50 (M184V drug-resistant HIV): 8 nM
EC50 (M184I drug-resistant HIV): 4.1 nM
EC50 [3]: 10 nM
EC50 [4]: 4.8 nM
EC50 (KH65R drug-resistant HIV): 1 nM
